Results published in patent US20060172953A1, “Treatment of benign prostatic hyperplasia using energolytic agents” (Threshold Pharmaceuticals Inc., priority 2003, published 2006).

Columns and labels:
[1] = tested on: HIF-1α; assay: HIF-1α expression in LNCaP cells (immunoblot of nuclear and whole-cell extracts); assay type: cell-based, human; details: for reduction of HIF-1α expression/accumulation (nuclear fraction): citrate-producing cell cultured under hypoxia
Source text: (§1) See Franklin et al.; 1995, Endocrine 3:603-607. […] 20108 USA. Methods: […]

[2] = tested on: human prostate stromal cells; assay: Apoptosis assay in primary cultures of prostate stromal cells; assay type: cell-based; details: primary cultures of prostate stromal cells (do not accumulate citrate)
Method: (§2) Primary Cell Cultures: Primary cultures of human prostate epithelial cells (Cambrex No CC-2555) and human prostate stromal cells (Cambrex No CC-2508) were obtained from Cambrex Bio Science Rockland, Inc. (191 Thomaston Street, Rockland, Me. 04841). Apoptosis assay: […] Lonidamine was added into each well at different concentrations, and then incubated for 6 h at 37° C. To assess the caspase 3 activity, the homogeneous buffer and caspase 3 substrate (Promega No G7791; Promega Corporation, 2800 Woods Hollow Road, Madison Wis. USA 53711) were added into each well in the presence or absence of caspase 3 inhibitor (Promega No G5961). The fluorescence intensity of cleaved substrate was determined using a fluorescence plate reader at excitation 485 nm and emission 530 nm.

[3] = tested on: PC3 cells; assay: Apoptosis (caspase 3 activation) in citrate-oxidizing PC3 cells; assay type: cell-based, human; details: LNCaP vs PC3 (citrate-oxidizing) cells
Method: as §2, with “Immunoblotting: Immunoblotting was carried out as described in Example 2. […]” for “Primary Cell Cultures: Primary cultures of human prostate epithelial cells (Cambrex No CC-2555) and human prostate stromal cells (Cambrex No CC-2508) were obtained from Cambrex Bio Science Rockland, Inc. (191 Thomaston Street, Rockland, Me. 04841).”

[4] = tested on: actin, caspase 3, NF-κB, IκBα; assay: Protein levels of actin, caspase 3, NF-κB, IκBα (immunoblot, specificity control); assay type: cell-based, human; details: all concentrations tested except 800 μM
Method: Methods: Cells were plated at a density of 5×10^5 cells into a dish, and then maintained in 37° C. incubator (5% CO2) for 2 days. Prior to the assay, cells were rinsed twice with pre-warmed (37° C.) RPMI-1640 Medium (ATCC No. 30-2001; 10 mM HEPES; 1 mM sodium pyruvate; 2 mM L-glutamine; 4500 mg glucose/L; 1500 mg sodium bicarbonate/L). Cells were incubated with 2 ml of culture medium in the absence or presence of lonidamine at different concentrations for 4 hours at 37° C. either under normoxia or hypoxia (oxygen level <0.1%). At the end of the incubation, the dish was placed on ice, and the cells were washed rapidly twice with cold PBS buffer (4° C.). […] The protein concentration was measured using a Bio-Rad protein assay. […] To detect the expression of caspase 3, NF-κB, P65 and IκBα, the membrane was blocked with TBST-containing 5% non-fat milk for 1 h at room temperature, and the proteins were detected by incubation with the corresponding antibodies overnight at 4° C. and with the alkaline phosphatase-conjugated secondary antibody for 1 h. The specific protein was detected using a colorimetric substrate, and the intensity of each protein was quantified using an NIH image system.

[5] = tested on: HIF-1α; assay: HIF-1α expression in PC3 cells (immunoblot of nuclear and whole-cell extracts); assay type: cell-based, human; details: 4 hours, dose-dependent
Source text: as §1

[6] = tested on: human prostate epithelial cells; assay: Apoptosis assay in primary cultures of prostate epithelial cells; assay type: cell-based; details: primary cultures of prostate epithelial cells (accumulate citrate)
Method: as §2

[7] = tested on: LNCaP cells; assay: Apoptosis (caspase 3 activation) in citrate-producing LNCaP cells; assay type: cell-based, human
Method: as §2, with “Immunoblotting: Immunoblotting was carried out as described in Example 2. […]” for “Primary Cell Cultures: Primary cultures of human prostate epithelial cells (Cambrex No CC-2555) and human prostate stromal cells (Cambrex No CC-2508) were obtained from Cambrex Bio Science Rockland, Inc. (191 Thomaston Street, Rockland, Me. 04841).”

## O=C(O)c1nn(Cc2ccc(Cl)cc2Cl)c2ccccc12 [lonidamine, 1-(2,4-dichlorobenzyl)-1H-indazole-3-carboxylic acid]
[1]; LNCaP cells, hypoxic conditions (oxygen <0.1%), 4 hours, dose-dependent
  level of HIF-1α protein in nuclear and whole-cell extracts: reduced the level of HIF-1α protein
[1]; 200 micromolar lonidamine
  reduction of HIF-1α expression/accumulation (nuclear fraction): about 2 fold
[1]; higher lonidamine concentrations (above 200 micromolar)
  reduction of HIF-1α expression/accumulation (nuclear fraction): more than 5 fold
[1]; hypoxic conditions (oxygen level <0.1%), LNCaP vs PC3
  effect on HIF-1α expression, LNCaP compared with PC3: more pronounced in LNCaP cells than in PC3 cells
[2]
  induction of apoptosis: induction of apoptosis was not observed
[3]
  activation of caspase 3, LNCaP compared with PC3: to a much greater extent than in citrate-oxidizing cells (PC3)
[4]
  inhibition of protein levels of actin, caspase 3, NF-κB, or IκBα: no detectable inhibition
[5]; hypoxic conditions (oxygen <0.1%)
  level of HIF-1α protein in nuclear and whole-cell extracts: reduced the level of HIF-1α protein
[5]; normoxic conditions
  level of HIF-1α protein in nuclear and whole-cell extracts: reduced the level of HIF-1α protein
[6]
  induction of apoptosis: induced apoptosis only in prostate epithelial cells in a dose-dependent manner
[7]; LNCaP (citrate-producing) cells
  activation of caspase 3: induced activation of caspase 3
[7]; lonidamine-treated cells
  time course of caspase 3 activation: time-dependent process
